According to patent publication US7205002B2, “Method of making, and the use of cytotoxic agents containing elemental selenium” (MCW Research Foundation, Inc., priority 2002, dated 2007):
Read-outs that look alike come from different tables or passages of the source. * marks the point of attachment. Cbz = O=C(OCc1ccccc1)*; CH2F = FC*

Key:
[1] = system: normal murine granulocyte/macrophage progenitors (mCFU-GM); assay: Surviving fraction after 45 min exposure, in vitro clonal assay; assay type: cell-based; conditions: 10 μg/ml
Method: (§1) Cytotoxic Se(0)-protein conjugates were generated by exposing alpha-medium supplemented with fetal bovine serum (10%) and selenomerocyanine photosensitizer MC54 (26 μM) to cool white fluorescent light (fluence rate: 27 W/m^2) for 60 min. Wild-type L1210 leukemia cells, melphalan-resistant mutant L1210/L-PAM1 cells, or normal murine granulocyte/macrophage progenitors (mCFU-GM) (10^6/ml) were suspended either in cytotoxic conjugates or in alpha-medium supplemented with 4-HC (10 μg/ml) and incubated for 45 min at 37° C. Treatment conditions were selected to achieve a similar recovery of normal murine hematopoietic progenitor cells (mCFU-GM). Cells were washed free of excess conjugates or drug, and surviving fractions were determined by in vitro clonal assay.

[2] = system: Wild-type L1210 leukemia cells; assay: as above; assay type: cell-based, murine; conditions: 10 μg/ml
Method: as §1

[3] = system: melphalan-resistant mutant L1210/L-PAM1 cells; assay: as above; assay type: cell-based, murine; conditions: 10 μg/ml
Method: as §1

L1210 leukemia cells = assay: Cytotoxic activity of conjugates formed by dye photoproducts and serum (lipo)proteins, in vitro clonal assay; assay type: cell-based, murine
Method: The mixtures were exposed to white light (27 W/m^2) for 60 min as deescribed above. […] To assess cytotoxic activity, cytotoxic conjugates were made isotonic by the addition of an appropriate volume of double-concentrated alpha-medium and incubated with L1210 leukemia cells for 60 min at 37° C. The surviving fraction of in vitro clonogenic leukemia cells was determined by in vitro clonal assay as described in Sieber, F. et al., 1984, which is incorporated by reference in its entirety. […] The fluorescence yield of fluorescent photoproduct-albumin conjugates was determined with a Hitachi F4500 fluorescence spectrophotometer. All samples were serially diluted with buffer to rule out artifacts due to self-quenching. In vitro clonal assays of L1210 murine leukemia cells were used to assess cytotoxic activity.

tumor cells = assay: Interactions of conjugates with ionizing radiation and standard chemotherapeutic agents; conditions: 30 min pretreatment, nontoxic 3 mg/ml
From the text: Alternatively, 5 or 6 doses of conjugates were used in combination with one or two doses of a drug. Depending on the combination, the two agents were applied either sequentially or simultaneously. […] For each combination, two or more target cells were selected from the following panel of tumor cell lines: L1210 and HL-60/ADR leukemia cells, PC3 and DU145 prostate cancer cells, H69 lung cancer cells, Mm5MT, MDA-MB-23 1, MDA-MB-435 and C1271 breast cancer cells, and SK-ES-1 Ewing's sarcoma cells.

[4] = system: PC3 prostate cancer cells; assay: Cytotoxicity of conjugates in combination; assay type: cell-based
[5] = system: MDA-MB-435 breast cancer cells; assay: Cytotoxicity of conjugates in combination; assay type: cell-based, human; conditions: 0.5 mM; 20 hours
[6] = system: DU145 prostate cancer cells; assay: Cytotoxicity of conjugates alone or in combination; assay type: cell-based, human
Method: The study was conducted with DU145 human prostate cancer cells. The protein source was fetal bovine serum, and the data points are means of 4 plates±SE.

[7] = system: caspase activity in L1210 leukemia cells; assay: Caspase Detection Kit (FITC-VAD-FMK) with specific peptide inhibitors; assay type: cell-based, murine; conditions: inhibitor 0.1 mM, 37° C., 1 hour
Method: Conjugates were derived from MC56 to avoid a spectral interference with the fluorescent caspase substrate. The protein source was fetal bovine serum. Caspase inhibitors were used as recommended by the manufacturer (R&D Systems). That is, each sample contained 10^6 cells, and the final concentration of inhibitors was 0.1 mM. Incubation was at 37° C. for 1 hour. […] In FIG. 12, the “Z-” prefix and the “-FMK” suffix are omitted because of space limitations.
We have used the Oncogene (San Diego, Calif.) Caspase Detection Kit to monitor caspase activity in L1210 leukemia cells after exposure to cytotoxic Se(0)-protein conjugates. The kit uses a fluorescent substrate (FITC-VAD-FMK; a conjugate of fluoresceinisothiocyanate with a fluoromethylketone-derivaticed short peptide) that detects a broad range of caspases. When FITC-VAD-FMK is used in conjunction with non-cytotoxic concentrations of specific peptide inhibitors (R&D Systems, Minneapolis, Minn.), the inhibition of the fluorescent signal is directly proportional to the contribution of the respective caspases to the overall signal. […] Caspases 2, 4 and 9 show moderate activation whereas caspases 1, 3, 6 and 8 show little or no activity. […]

[8] = in vivo; cited from earlier work
female B6D2F1 mice = assay: Acute systemic toxicity, intraperitoneal injection; assay type: in vivo; conditions: MC54 26 μM with equimolar bovine serum albumin; 1-ml i.p. injection on 1 to 5 consecutive days
Method: Acute Systemic Toxicity of Photoproduct-Protein Conjugates in Mice: In an initial acute toxicity study, groups of 5 female B6D2F1 mice were injected intraperitoneally with photoproduct-protein conjugates. The photoproduct-protein conjugates were generated by photobleaching the selenomerocyanine MC54 (26 μM) in the presence of an equimolar concentration of bovine serum albumin. Group 1 received one 1-ml intraperitoneal injection of this conjugate. Groups 2 through 5 received the same injection of conjugates on 2, 3, 4, or 5 consecutive days, respectively.
The second toxicity experiment used conjugates that had been prepared with a dye-to-protein ratio of 5:1. Since MC54 was added from stock solutions in ethanol, the mice of the second series were exposed to 5-fold higher doses of ethanol.

## O=P1(N(CCCl)CCCl)NC(OO)CCO1 (stereo not shown) [Dye 4-HC, 4-Hydroperoxycyclophosphamide]
[1]
  Surviving Fraction: 0.0088 ± 0.0025
[2]
  Surviving Fraction: 0.0460 ± 0.0043
[3]
  Surviving Fraction: 0.2636 ± 0.0074

## CCO [Ethanol]
L1210 leukemia cells; MC54-derived photoproducts with the given solvent/protein
  Cytotoxic Activity: no

## CCCCN1C(=O)C(=C/C=C/C=C2\Oc3ccccc3N2CCCS(=O)(=O)[O-])C(=O)N(CCCC)C1=S.[Na+] [MC540]
L1210 leukemia cells
  Cytotoxic Activity: no

## NCCCNCCSP(=O)(O)O [amifostine]
Tumor cells
  Effect of pretreatment on response to cytotoxic conjugates: sensitized tumor cells to cytotoxic conjugates

## CCCCS(=N)(=O)CCC(N)C(=O)O (stereo not shown) [buthionine sulfoximine]
[4]; 0.5 mM, 20 hours
  Effect of pretreatment on response to conjugates: little or no effect
[5]
  Effect of pretreatment on response to conjugates: little or no effect
[6]; 0.5 mM, 20 hours
  Effect of pretreatment on response to conjugates: improved the response

## N.N.[Cl][Pt][Cl] [cisplatin]
[4]; sequential exposure
  Antitumor effect, sequential exposure with conjugates: additive
[6]; sequential exposure
  Antitumor effect, sequential exposure with conjugates: additive

## Bovine serum albumin: carrier protein for conjugates with MC54-derived photoproducts
L1210 leukemia cells
  Cytotoxic Activity: yes

## Carboxymethylated bovine serum albumin: commercial product from Sigma Chemical Co.
L1210 leukemia cells
  Cytotoxic Activity: no

## Cbz-Val-Ala-Asp-CH2F
[7]
  Inhibition of the fluorescent caspase signal: reduced the fluorescence signal more than any of the specific inhibitors

## Fetal bovine serum
L1210 leukemia cells
  Cytotoxic Activity: yes

## albumin
L1210 leukemia cells
  Cytotoxicity of conjugates by carrier (lipo)protein: more cytotoxic than conjugates formed by HDL
[8]
  half-life: approximately 19 days

## photoproduct-protein conjugates: generated by photobleaching the selenomerocyanine MC54 (26 μM) in the presence of an equimolar concentration of bovine serum albumin
Female B6D2F1 mice
  Signs of toxicity: None of the animals showed signs of acute or chronic toxicity
  Survival: All animals survived
